Results taken from US7907999B2, “Apparatus and method for measuring physiological characteristics of an intact trachea in vitro” (priority 2006, dated 2011).

Legend:
[1] = test system: smooth muscle of intact trachea; assay: Pressure drop (ΔP) of perfusion liquid through intact trachea: smooth muscle contraction/relaxation; parameters: species or system Hartley guinea pigs; conditions: for effect on differential pressure (ΔP), smooth muscle contraction or relaxation: intact guinea pig tracheal segment perfused at 24 ml/min, agent concentration and bath as in Tables 1 and 2, relaxation observed after pre-contraction with MCh
Source text: As described above, the first port 50 of the differential pressure transducer 16 is in fluid communication with the openings 82 in the first cannula 78 and the second port 52 of the differential pressure transducer 16 is in fluid communication with the openings 88 in the second cannula 84. As a result, the differential pressure transducer 16 “sees” the pressure of the perfusion liquid flowing through the trachea 14 at the openings 82 and 88 and can calculate the pressure drop (ΔP) of the perfusion liquid between these two locations (as depicted in FIG. 7). […] Hartley guinea pigs were anesthetized by i.p. injection of sodium pentobarbital (65 mg/kg). A 4.2-cm tracheal segment was removed and mounted on a perfusion device 12 at its in situ length. The perfusion device was placed in an extraluminal bath containing a modified Krebs-Henseleit […] solution, and was perfused at 24 ml/min with MKH solution from an intraluminal bath. Water was used as a heat transfer fluid and was supplied to the heat exchanger 20 and the outer jackets of vessels 26, 28 to maintain the temperature of the extraluminal and intraluminal baths at about 37° C. Current pulses (20 μA, 5 s duration, 50 s intervals) were delivered through the current electrodes, while the changes in the transepithelial potential difference (Vt) caused by the current pulses were monitored under open-circuit conditions. Alternatively, and as mentioned above, voltage pulses can be applied across the voltage electrodes under voltage-clamp conditions, while the changes in short circuit current are monitored. The preparation was equilibrated for 2.5 hours to allow Vt and the pressure drop (ΔP) to stabilize before the current pulses were delivered. Basal Vt (the transepithelial voltage in the basal, or steady, state of an unstimulated epithelium) was 14.8±0.8 mV. […] To determine the effects of relaxant agents, when the mechanical and bioelectric responses reached their plateau responses to MCh, the trachea was treated with agents added to the extraluminal or intraluminal bath. The agents used in this example are described in tables 1 and 2 below. The effects of the agents were analyzed statistically using student's paired t-test. P<0.05 was accepted as significant, and is indicated by an asterisk in FIGS. 8-15. The results are presented as means±SE. Each agent was tested four times. Amiloride, NPPB and bumetanide were dissolved in dimethyl sulfoxide (DMSO) (with a final concentration equal to or less than 0.04%). The other agents were prepared in MKH. Terbutaline, histamine, ouabain and bumetanide were added to the extraluminal bath; the other agents were added to the intraluminal bath. Hypersmolar solutions were prepared by adding osmolytes to MKH solution.

[2] = test system: epithelium of intact trachea; assay: Transepithelial potential difference (Vt) and impedance (Rt) of intact perfused trachea in vitro; parameters: species or system Hartley guinea pigs; conditions: for effect on transepithelial impedance (Rt) / effect on transepithelial potential difference (Vt): intact guinea pig tracheal segment, each agent tested four times; for effect on transepithelial impedance (Rt): current pulses 20 μA; for effect on transepithelial impedance (Rt) / effect on Vt, summary of bar graphs (on average): agent concentration and bath as in Tables 1 and 2; for effect on transepithelial potential difference (Vt): open-circuit, 37° C., agent concentration and bath (intraluminal/extraluminal) as in Tables 1 and 2; for effect on Vt, summary of bar graphs (on average): means of four preparations
Source text: Under open circuit conditions, the first current electrode 60 (FIG. 1) introduces an electrical current into the perfusion liquid flowing into the perfusion device 12. The electrical current flows into the perfusion device, where it emanates from the inlet portion 64 (FIG. 7) and flows across the trachea wall to the second current electrode 62. The first voltage-sensing electrode 56 (FIG. 1) is in electrically continuity with the perfusion liquid in the trachea 14 (via cannula 78, tube 100, and conduits 38 and 46) and therefore senses the electrical potential inside the trachea. The second voltage-sensing electrode 58 senses the electrical potential in the extraluminal bath 54 outside of the trachea. The amplifier 18 calculates the electrical potential difference between the voltage-sensing electrodes 56, 58, which represents the transepithelial potential difference of the trachea. The amplifier 18 can also calculate the transepithelial impedance across the trachea wall based on the applied current and the measured potential difference. […] Hartley guinea pigs were anesthetized by i.p. injection of sodium pentobarbital (65 mg/kg). A 4.2-cm tracheal segment was removed and mounted on a perfusion device 12 at its in situ length. The perfusion device was placed in an extraluminal bath containing a modified Krebs-Henseleit […] solution, and was perfused at 24 ml/min with MKH solution from an intraluminal bath. Water was used as a heat transfer fluid and was supplied to the heat exchanger 20 and the outer jackets of vessels 26, 28 to maintain the temperature of the extraluminal and intraluminal baths at about 37° C. Current pulses (20 μA, 5 s duration, 50 s intervals) were delivered through the current electrodes, while the changes in the transepithelial potential difference (Vt) caused by the current pulses were monitored under open-circuit conditions. Alternatively, and as mentioned above, voltage pulses can be applied across the voltage electrodes under voltage-clamp conditions, while the changes in short circuit current are monitored. The preparation was equilibrated for 2.5 hours to allow Vt and the pressure drop (ΔP) to stabilize before the current pulses were delivered. Basal Vt (the transepithelial voltage in the basal, or steady, state of an unstimulated epithelium) was 14.8±0.8 mV. […] To determine the effects of relaxant agents, when the mechanical and bioelectric responses reached their plateau responses to MCh, the trachea was treated with agents added to the extraluminal or intraluminal bath. The agents used in this example are described in tables 1 and 2 below. The effects of the agents were analyzed statistically using student's paired t-test. P<0.05 was accepted as significant, and is indicated by an asterisk in FIGS. 8-15. The results are presented as means±SE. Each agent was tested four times. Amiloride, NPPB and bumetanide were dissolved in dimethyl sulfoxide (DMSO) (with a final concentration equal to or less than 0.04%). The other agents were prepared in MKH. Terbutaline, histamine, ouabain and bumetanide were added to the extraluminal bath; the other agents were added to the intraluminal bath. Hypersmolar solutions were prepared by adding osmolytes to MKH solution.

| EC50 ([1]; Cavia porcellus, methacholine in the extraluminal bath, read-out: EC50 for pre-contracting the trachea) [nM] | Compound | effect on differential pressure (ΔP), smooth muscle contraction or relaxation [1] | effect on transepithelial impedance (Rt) [2] | effect on transepithelial potential difference (Vt) [2] | effect on Vt, summary of bar graphs (on average) [2] | effect on transepithelial potential (Vt) during pre-contraction ([2]; MCh 3×10^−7M in the extraluminal bath) |
| --- | --- | --- | --- | --- | --- | --- |
|  | OC[C@@H](O)[C@@H](O)[C@H](O)[C@H](O)CO [D-M, D-mannitol] | relaxation | increased Rt | depolarization |  |  |
|  | NCCc1c[nH]cn1 [Histamine] | contraction | did not effect Rt | variable Vt responses | did not effect Vt appreciably |  |
|  | N=C(N)NC(=O)c1nc(Cl)c(N)nc1N [amiloride, Amiloride] | Neither agent affected ΔP | increase in Rt | depolarization of the epithelium |  |  |
| 300 | CC(=O)OC(C)C[N+](C)(C)C (centres unmarked) [methacholine] |  |  |  |  | induced transepithelial hyperpolarization |
|  | O=C(O)c1cc([N+](=O)[O-])ccc1NCCCc1ccccc1 [NPPB] | Neither agent affected ΔP | negligible effect on Rt | depolarization caused by NPPB was slower to develop and greater in magnitude |  |  |
|  | CC(C)(C)NCC(O)c1cc(O)cc(O)c1 (centres unmarked) [Terbutaline] | relaxation | did not effect Rt | transient depolarization in three of the four preparations followed by slow hyperpolarization | did not effect Vt appreciably |  |
|  | C[C@@H]1O[C@@H](O[C@H]2C[C@@H](O)[C@]3(CO)[C@H]4[C@H](O)C[C@]5(C)[C@@H](C6=CC(=O)OC6)CC[C@]5(O)[C@@H]4CC[C@]3(O)C2)[C@H](O)[C@H](O)[C@H]1O [Ouabain] | delayed contraction of the trachea | decrease in Rt | immediate depolarization | complete |  |
|  | [Cl-].[Na+] [NaCl] | relaxation | decreased Rt | depolarization |  |  |
|  | CCCCNc1cc(C(=O)O)cc(S(N)(=O)=O)c1Oc1ccccc1 [Bumetanide] | small degree of relaxation of the trachea | did not effect Rt | depolarization |  |  |
